The source made the active and inactive calls. The rule behind the calls is not given here.
Legend:
[1] = Antioxidant activity assessed as DPPH radical scavenging activity at 10 uM by spectrophotometric analysis relative to control; assay type: functional
Mus musculus [2] = species: Mus musculus; experiment: Antioxidant activity in Fe2+-induced mouse assessed as inhibition of MDA production in lung homogenate at 250 to 1000 uM incubated for 60 mins; assay type: functional; details: dose 250-1000 µM
RAW264.7 [3] = experiment: Cytotoxicity against LPS-induced mouse RAW264.7 cells assessed as reduction in cell viability at 2.5 to 10 uM measured after 12 hrs by CCK-8 assay; assay type: toxicity, cell-based; details: raw264.7, 12 h, dose 2.5-10 µM
RAW264.7 [4] = experiment: Antiinflammatory activity in LPS-induced mouse RAW264.7 cells assessed as inhibition of TNF-alpha production at 2.5 to 10 uM pretreated with compound for 1 hr followed by LPS-stimulation and measured after 12 hrs by ELISA analysis; assay type: functional, cell-based; details: dose 2.5-10 µM, time 13.0 hrs
[5] = Antioxidant activity assessed as DPPH radical scavenging activity by spectrophotometric analysis; assay type: functional
Phosphodiesterase 4 = Phosphodiesterase 4 (Homo sapiens, UniProt P27815+Q08499+Q07343+Q08493); experiment: Inhibition of PDE4 (unknown origin) using fluorescein-cAMP as substrate incubated for 45 mins by fluorescence polarization assay; assay type: protein assay
[6] = Metal chelating activity assessed as Fe3+-reducing capacity at 0.006 to 0.2 mM incubated for 30 mins by spectrophotometry analysis; details: dose 0.006-0.2 mM
Mus musculus [7] = experiment: Antiinflammatory activity in LPS-induced ICR mouse model assessed as reduction in TNF-alpha production in serum at 100 mg/kg, ip pretreated with compound for 1 hr followed by LPS-induction and measured after 60 mins ny ELISA analysis; assay type: functional; design: scale not given: the % may be the effect or the level left; details: time 2 hrs
[8] = Metabolic stability in human liver microsome assessed as intrinsic clearance measured upto 45 mins in presence of NADPH by LC-MS/MS analysis; assay type: ADME; details: liver microsomes, read-out: CLH
[9] = Metal chelating activity assessed as Fe2+-complex formation capacity at 0.1 to 1 mM by spectrophotometry analysis; details: dose 0.1-1 mM
[10] = Metabolic stability in human liver microsome assessed as half life measured upto 45 mins in presence of NADPH by LC-MS/MS analysis; assay type: ADME; details: liver microsomes
Mus musculus [11] = experiment: Antiinflammatory activity in LPS-induced ICR mouse model assessed as reduction in TNF-alpha production in serum at 50 mg/kg, ip pretreated with compound for 1 hr followed by LPS-induction and measured after 60 mins ny ELISA analysis; assay type: functional; design: scale not given: the % may be the effect or the level left; details: time 2 hrs
Mus musculus [12] = experiment: Antiinflammatory activity in LPS-induced ICR mouse model assessed as reduction in TNF-alpha production in serum at 10 mg/kg, ip pretreated with compound for 1 hr followed by LPS-induction and measured after 60 mins ny ELISA analysis; assay type: functional; design: scale not given: the % may be the effect or the level left; details: time 2 hrs

## COc1ccc(/C=C2\COc3cc(O)ccc3C2=O)cc1OCC1CC1
[1]
  Activity: inactive

## COc1ccc2c(c1)OC/C(=C\c1ccc(O)c(OC)c1)C2=O
[1]
  Activity: inactive

## COc1ccc(/C=C2\Oc3cc(O)ccc3C2=O)cc1OC
[1]
  Activity: inactive

## CCOc1cc(/C=C/C(=O)c2ccc(O)c(O)c2)ccc1OC
Mus musculus [2]
  Activity: Active
RAW264.7 [3]
  Activity: Non-Toxic
RAW264.7 [4]
  Activity: Active
[5]
  IC50: 6.2 µM
Phosphodiesterase 4
  IC50: 1.45 µM

## COc1ccc(/C=C2\COc3cc(O)ccc3C2=O)cc1O
[1]
  Activity: inactive

## COc1ccc(/C=C/C(=O)c2ccc(O)c(O)c2)cc1OC(C)C
Mus musculus [2]
  Activity: Active
RAW264.7 [3]
  Activity: Non-Toxic
RAW264.7 [4]
  Activity: Active
[5]
  IC50: 6.36 µM
Phosphodiesterase 4
  IC50: 1.53 µM

## COc1ccc(/C=C/C(=O)c2ccc(O)cc2)cc1OC
[1]
  Activity: inactive

## O=C1/C(=C/c2ccc(O)c(O)c2)Oc2cc(O)ccc21
[1]
  Activity: 30.2%

## COc1ccc(/C=C2\Oc3cc(O)ccc3C2=O)cc1OCC1CC1
[1]
  Activity: inactive

## COc1ccc(/C=C/C(=O)c2ccc(O)cc2)cc1OCC1CC1
[1]
  Activity: inactive

## COc1ccc(/C=C/C(=O)c2ccc(O)c(O)c2)cc1OCC1CC1
Mus musculus [2]
  Activity: Active
[6]
  Activity: Active
RAW264.7 [3]
  Activity: Non-Toxic
Mus musculus [7]
  Activity: 54.7%
[8]
  CLint scaled: 36.2 mL/min/kg
RAW264.7 [4]
  Activity: Active
[9]
  Activity: Active
[10]
  half-life: 48 min
[5]
  IC50: 6.97 µM
Mus musculus [11]
  Activity: 20.2%
Phosphodiesterase 4
  IC50: 1.56 µM

## COc1cc(/C=C2\COc3cc(O)ccc3C2=O)ccc1O
[1]
  Activity: inactive

## COc1ccc(/C=C2\COc3cc(O)ccc3C2=O)cc1OC
[1]
  Activity: inactive

## CC1=NN(c2ccccc2)C(=O)C1
[1]
  Activity: 23.6%

## COc1ccc(C2CNC(=O)C2)cc1OC1CCCC1 (stereo not drawn) [ROLIPRAM]
Mus musculus [12]
  Activity: 55.1%

## O=C(c1ccc(F)cc1)C1CCN(CCn2c(=O)[nH]c3ccccc3c2=O)CC1 [KETANSERIN]
[8]
  CLint scaled: 56 mL/min/kg
[10]
  half-life: 31.1 min

## COc1ccc(/C=C/C(=O)c2ccc(O)c(O)c2)cc1OC
Mus musculus [2]
  Activity: Active
RAW264.7 [3]
  Activity: Non-Toxic
RAW264.7 [4]
  Activity: Active
[5]
  IC50: 10.9 µM
Phosphodiesterase 4
  IC50: 2.78 µM

## COc1ccc(/C=C/C(=O)c2ccc(O)c(O)c2)cc1OC1CCCC1
Mus musculus [2]
  Activity: Active
RAW264.7 [3]
  Activity: Non-Toxic
RAW264.7 [4]
  Activity: Active
[5]
  IC50: 5.95 µM
Phosphodiesterase 4
  IC50: 1.82 µM

## COc1ccc2c(c1)OC/C(=C\c1ccc(O)c(O)c1)C2=O
[1]
  Activity: 49.6%

## O=C1/C(=C/c2ccc(O)c(O)c2)COc2cc(O)ccc21
[1]
  Activity: 48.3%

## O=C(/C=C/c1ccc(O)c(O)c1)c1ccc(O)cc1
[1]
  Activity: 60.4%
